Values after ≈ are worked out from the molar mass of the structure shown.

Consider five compounds from article PMC7024361, “Vaginal Polyelectrolyte Layer-by-Layer Films Based on Chitosan Derivatives and Eudragit® S100 for pH Responsive Release of Tenofovir” (Marine Drugs, 2020).

Series [1] can be described thus: Material cytotoxicity, CellTiter Glo. The class given is cell-based. The settings on record: human, maximum concentration tested 1000 µg/mL. On the procedure: To study cell toxicity, the materials were incubated in culture media at 37 °C and 5% CO2 for 48 h before the assay to ensure that any potential toxic component would be present in the dilutions to be tested. The cell culture was then treated with a suspension of base 5 serial dilutions of the most concentrated suspension (1000 µg/mL). Experiments were performed in lymphoblastic (MT-2) and macrophage-monocyte (THP-1) derived cell lines to evaluate toxicity on the immune cells present in vaginal or uterine mucosae, and in a uterine epithelial cell line (HEC-1A) to evaluate the potential damage to mucosal integrity (Figure 12).
Three human cell lines were used: a lymphoblastic cell line, MT-2 [65], a macrophage-monocyte derived cell line, THP-1 (ATCC® TIB-202) and a uterine/endometrial epithelial cell line, HEC-1A (ATCC® HTB-112™) (kindly provided by Maria Angeles Muñoz). All the cell lines were cultured in RPMI 1640 medium supplemented with 10 % (v/v) fetal bovine serum, 2 mM L-glutamine and […] streptomycin (all Whittaker M.A. Bio-Products, Walkerville, MD, USA) at 37 °C in a humidified atmosphere of 5 % CO2. To detach the HEC-1-A cells, the medium was removed and the flask was rinsed during 10 min with 1 to 2 mL of trypsin 0.25%—EDTA 0.03% solution. The medium was replaced every three days after cell centrifugation at 1500 rpm for 5 min.
Cell toxicity was measured using the CellTiter Glo kit (Promega, Madison, WI, USA). Cells were incubated in 96-well plates at a density of […] cells per well (MT-2 and THP-1) and 2 × 10^4 (HEC-1A) in complete medium. To assess the cytotoxic effect, cells were exposed to fresh medium containing different concentrations of lactic acid, tartaric acid, citric acid, TEC and ES100 suspensions, or the same concentration of PBS 1× as control. Experiments were performed in triplicate and the culture was maintained at 37 °C and 5% CO2 humidified atmosphere for 48 h. A standard method was followed to suspend the materials in PBS 1× [66]. After incubation for 48 h, the medium was removed from cell cultures and 50 µL of CellTiter Glo reactive was added to each well on the plate. Relative luminescence units (RLUs) were measured in a luminometer (Sirius, Berthold Detection Systems). Cytotoxic concentration 50 (CC50) values were calculated using GraphPad Prism Software (non-linear regression, log inhibitor versus response). The results of the cytotoxic assay are shown as the average of at least three individual experiments.
(In general: Cellular ATP, detected with luciferase, serves as a proxy for viable cell number.)

The next series deals with HIV. Also on record: method as in PMID 22964245. The settings on record: women; cited from earlier work.
Where [2] appears, read: HEC-1A uterine/endometrial epithelial cells.
[3] abbreviates: MT-2 lymphoblastic cells, MT-2, 48 h.
[4] abbreviates: THP-1 macrophage-monocyte derived cells, THP1, 48 h.

What is called CC50 is the concentration at which the toxic effect on the cells reaches its halfway point. On to `O=C(O)CC(O)(CC(=O)O)C(=O)O` [Citric acid, citric acid], for which the values for the CC50 at 48 h in series [1] (setting [2]), in series [1] (setting [3]) and in series [1] (setting [4]) were over 1000 µg/mL, over 1000 µg/mL and about 1000 µg/mL (≈ 5.2 mM), respectively.

Take `CC(O)C(=O)O` (stereo not drawn) [Lactic acid, L(+)-Lactic acid]: the CC50 at 48 h in series [1] (setting [2]), in series [1] (setting [3]) and in series [1] (setting [4]) was over 1000 µg/mL in each case.

For the compound `CCOC(=O)CC(O)(CC(=O)OCC)C(=O)OCC` [TEC, triethylcitrate], the cytotoxic concentration (CC50) at 48 h in series [1] (setting [2]) is over 1000 µg/mL; in series [1] (setting [3]), about 1000 µg/mL (≈ 3.62 mM); in series [1] (setting [4]), over 1000 µg/mL.

Regarding `C[C@H](Cn1cnc2c(N)ncnc21)OCP(=O)(O)O` [TFV, Tenofovir], the “cervicovaginal fluid concentration that confers protection against HIV” value with HIV was 1000 ng/mL.

For `O=C(O)C(O)C(O)C(=O)O` (stereo not drawn) [Tartaric acid, L(+)-Tartaric acid], the half-maximal cytotoxic concentration (CC50) at 48 h is about 200 µg/mL (≈ 1.33 mM) in series [1] (setting [2]), over 1000 µg/mL in series [1] (setting [3]) and over 1000 µg/mL in series [1] (setting [4]).
